Results from US20250333432A1, “NOVEL COMPOUND AND USE OF SAME” (NAGASE & CO., LTD., priority 2020, published 2025).

Columns and labels:
[1] = Solubility in solvent (methanol); type: physicochemical
[2] = test system: antioxidant responsive element transcription activity (pGL3-GSTYaARE-Luciferase) in ARPE-19 cells; assay: Antioxidant responsive element luciferase reporter assay in ARPE-19 cells; type: cell-based; details: for antioxidant effect in comparison with trehangelin A: ARE luciferase reporter, comparison with known substance trehangelin A; for antioxidant effect: conclusion from luciferase activity vs control, FIG. 1
Procedure: The physiological functions of the compounds obtained above were evaluated. The evaluation of the physiological functions was carried out by using the tool described in Carnosic acid, a catechol-type electrophilic compound, protects neurons both in vitro and in vivo through activation of the Keap1/Nrf2 pathway via S-alkylation of targeted cysteines on Keap1. Takumi Satoh et al., Journal of Neurochemistry. Vol. 104, pp. 1116-1131, (2008).
Briefly, ARPE-19 cells were seeded in 24-well plates using a 10% FBS-DMEM/F12 medium (manufactured by GIBCO) so as to be 50% confluent. After 24 hours, (1) a mixed solution (vector solution) of 0.5 μg of pGL3-GSTYaARE-Luciferase vector, 0.5 μg of pSV-betaGAL vector, and 50 μL of Opti-MEM I (manufactured by GIBCO) per well and (2) a mixed solution (lipofectamine 2000) of 2 μL of lipofectamine 2000 (manufactured by Thermo Fisher) and 50 μL of Opti-MEM I (manufactured by GIBCO) per well were prepared and left at room temperature for 5 minutes. The vector solution and the lipofectamine 2000 solution were mixed and left at room temperature for 20 minutes. The resulting mixed solution was added to cultured cells (ARPE-19 cells) (100 μL per well) and cultured in a CO2 incubator for 6 hours. Subsequently, the culture medium was replaced with a new 10% FBS-DMEM/F12 medium (0.5 mL/well), followed by culturing for 18 hours. The culture medium was then replaced with a new 10% FBS-DMEM/F12 medium (0.3 mL/well) or a 10% FBS-DMEM/F12 medium (0.3 mL/well) containing […] of various trehangelin derivatives, followed by culturing for 24 hours. After the medium was removed, 150 μL of PassiveLysisBuffer (manufactured by Promega) was added to prepare a cell lysis solution.
100 μL of each cell lysis solution was placed on a 96-well plate, and 100 μL of β-GAL assay kit solution (manufactured by Promega) was added, followed by incubation at 37° C. for 3 hours. Then, β-GAL activity was confirmed by measuring the absorbance at 405 nm.
20 μL of each cell lysis solution was placed in a 96-well plate which differs from the above 96-well plate, and 100 μL of each luciferase assay kit solution (manufactured by Promega) was added. Then, luciferase activity was measured by measuring the luminescence. The obtained result on the luciferase activity was corrected by dividing them by the result on the β-GAL activity, and the antioxidant responsive element transcription activity was calculated.

With `C/C=C(/C)C(=O)OC1C(O)C(CO)OC(OC2OC(CO)C(O)C(OC(=O)/C(C)=C\CC)C2O)C1O` (centres unmarked) [3-O-(2-methyl-2-butenoyl)-3′-O-(2-methyl-2-pentenoyl)trehalose] the Solubility in solvent [1] was “Poorly soluble in methanol”, the “antioxidant effect in comparison with trehangelin A” value (“antioxidant effect in comparison” below) [2] was “higher antioxidant effect than trehangelin A” and the antioxidant effect [2] was “have an antioxidant effect”.
In the case of `C/C=C(/C)C(=O)OC1C(O)C(CO)OC(OC2OC(CO)C(O)C(OC(C)=O)C2O)C1O` (centres unmarked) [3-O-acetyl-3′-O-angeloyltrehalose], the Solubility in solvent [1] is reported as “Poorly soluble in methanol” and the antioxidant effect [2] is reported as “have an antioxidant effect”.
In the case of `C/C=C\C(=O)OC1C(O)C(CO)OC(OC2OC(CO)C(O)C(OC(=O)/C(C)=C\C)C2O)C1O` (centres unmarked) [3-O-angeloyl-3′-O-isocrotonyltrehalose], the Solubility in solvent [1] is reported as “Poorly soluble in methanol”, the “antioxidant effect in comparison” value [2] is reported as “higher antioxidant effect than trehangelin A” and the antioxidant effect [2] is reported as “have an antioxidant effect”.
With `C/C=C(/C)C(=O)OC1C(O)C(CO)OC(OC2OC(CO)C(O)C(O)C2O)C1O` (centres unmarked) [3-O-angeloyltrehalose] the Solubility in solvent [1] was “Poorly soluble in methanol”, the “antioxidant effect in comparison” value [2] was “almost the same level of antioxidant effect as that of trehangelin A” and the antioxidant effect [2] was “have an antioxidant effect”.
